pIC50: −log10 of the molar value.
How the values were obtained:
adenosine A2 receptor = biological target: T1, adenosine A2 receptor (Rattus norvegicus, UniProt P30543); assay: Adenosine Receptor Binding - A2 Receptor Affinity (RBA2); conditions: [3H]NECA, rat striatal membranes; read-out: RBA-2
T1 construct: 5 mg original tissue weight of rat weight of rat striatal membranes; tissue Pel-Freez (Rogers, Arkansas); host or cells: rat striatum, membrane preparation
Experimental: Adenosine Receptor Binding - A2 Receptor Affinity (RBA2)
Brains from 200-500 g mixed sex Sprague-Dawley rats were purchased from Pel-Freez (Rogers, Arkansas). […] Brains were thawed and then kept on ice while the striata were dissected out. […] When needed, tissue was thawed at room temperature, disrupted in a Polytron, and kept on ice until used.
All incubations were for 60 minutes at 25°C in 12x75 mm glass tubes containing 1 ml Tris with 5 mg original tissue weight of rat weight of rat striatal membranes, 4 nM [^3H]-N-ethyl adenosine-5'-carboxamide ([^3H]NECA), 50 nM N^6-cyclopentyladenosine (to eliminate A1 receptor binding), 10 mM MgCl2, 0.1 units/ml of adenosine deaminase and 1% dimethylsulfoxide. N^6-Cyclopentyladenosine was dissolved at 10 mM in 0.02 N HCI and diluted in Tris. […] Test compounds were dissolved at 10 mM in dimethylsulfoxide on the same day as the experiment, and diluted in dimethylsulfoxide to 100x the final incubation concentration. […] [^3H]NECA was diluted to 40 nM in Tris. The membrane suspension (5 mg/0.79 ml) contained sufficient MgC12 and adenosine deaminase to give 10 mM and 0.1 units/ml, respectively, final concentration in the incubation. For test compounds with lC50 values less than 1 µM, the order of additions was test compound (10 µl), N^6-cyclopentyladenosine (100 µl), [^3H]NECA (100 µl), and membranes (0.79 ml). […] After all additions, the rack of tubes was vortexed, and the tubes were then incubated for 60 min at 25°C in a shaking water bath. The rack of tubes was vortexed an additional time halfway through the incubation.
incubations were terminated by filtration through 2.4 cm GF/B filters under reduced pressure. Each tube was filtered as follows: the contents of the tube were poured onto the filter, 4 ml of ice-cold Tris were added to the tube and the contents poured onto the filter, and the filter was washed twice with 4 ml of ice-cold Tris. The filtration was complete in about twelve seconds.
Nonspecific binding was defined as binding in the presence of 100 µM N^6-cyclopentyladenosine, and specific binding was defined as total binding minus nonspecific binding. The IC50 was calculated by weighed nonlinear least squares curve-fitting to the mass-action equation. [formula] • where Y is cpm bound • T is cpm total binding without drug • S is cpm specific binding without drug • D is the concentration of drug • and K is the IC50 of the drug Weighting factors were calculated under the assumption that the standard deviation was proportional to the predicted value of Y. Nonspecific binding was treated as a very large (infinite) concentration of drug in the computer analysis.

Swiss-Webster male mice [1] = assay: Mouse Activity and Screen Test Procedure (MAST): locomotor activity in actophotometer; assay type: in vivo; conditions: one hour prior to testing
Experimental: Nine unfasted Swiss-Webster male mice weighing 20-30 g equally divided into three groups for each drug dose to be tested. That is, data for each dose level was generated by three separated groups of three mice each. A minimum of three dose levels (10, 30, and 100 mg/kg) are tested for each drug. Treatments are administered intraperitoneally one hour prior to testing. All dosages are calculated as parent compound and given in volumes of 10 ml/kg. […] Control animals are injected with Methocel. […] The actophotometer consists of a cylindrical chamber whose center is occupied by another cylinder which contains the illumination for six photocells located on the perimeter of the chamber. Six light-beam interruptions equal one count. […] Data: The data obtained from the screen test are expressed as percent of mice falling off the screen. Data derived from locomotor activity of drug treated mice are compared to the activity of vehicle treated animals and are expressed as percent inhibition of spontaneous locomotion. All percentages reported for inhibition of locomotion (LI) are based upon data accumulated for one hour. […] An overall dose rating is obtained by the following criteria: LAD refers to the lowest dose at which an A rating is achieved. […] The compounds are identified in the Examples.

Swiss-Webster male mice [2] = assay: Mouse Activity and Screen Test Procedure (MAST): screen test (ST); assay type: in vivo; conditions: one hour postinjection
From the text: The compounds of the invention are new chemical substances which are useful as pharmaceutical agents for the treatment of psychoses. The antipsychotic activity of representative compounds of the invention was established by the Mouse Activity and Screen Test Procedrue (MAST) described below.
Nine unfasted Swiss-Webster male mice weighing 20-30 g equally divided into three groups for each drug dose to be tested. That is, data for each dose level was generated by three separated groups of three mice each.
A minimum of three dose levels (10, 30, and 100 mg/kg) are tested for each drug. Treatments are administered intraperitoneally one hour prior to testing. All dosages are calculated as parent compound and given in volumes of 10 ml/kg. Compounds are dissolved or suspended in 0.2% Methocel. Control animals are injected with Methocel.
Testing: A two part testing procedure is started one hour postinjection. First, the screen test (ST) is performed (see Pharmac. Biochem. Behav. 6, 351-353, 1977). Briefly this test consists of placing mice on individual wire screens which are then rotated 180 degrees at the start of a 60 second observation period. The number of mice falling off the inverted screen is recorded.
Data: The data obtained from the screen test are expressed as percent of mice falling off the screen. Data derived from locomotor activity of drug treated mice are compared to the activity of vehicle treated animals and are expressed as percent inhibition of spontaneous locomotion. All percentages reported for inhibition of locomotion (LI) are based upon data accumulated for one hour. Both phases of testing are graded: A=60-100%; G=31-59%; and N=0-30%. An overall dose rating is obtained by the following criteria:
LAD refers to the lowest dose at which an A rating is achieved. […] Utilizing this procedure, an overall dose rating of A was obtained for the noted compound at the indicated dose. The compounds are identified in the Examples.

T1 sequence (P30543 whole entry): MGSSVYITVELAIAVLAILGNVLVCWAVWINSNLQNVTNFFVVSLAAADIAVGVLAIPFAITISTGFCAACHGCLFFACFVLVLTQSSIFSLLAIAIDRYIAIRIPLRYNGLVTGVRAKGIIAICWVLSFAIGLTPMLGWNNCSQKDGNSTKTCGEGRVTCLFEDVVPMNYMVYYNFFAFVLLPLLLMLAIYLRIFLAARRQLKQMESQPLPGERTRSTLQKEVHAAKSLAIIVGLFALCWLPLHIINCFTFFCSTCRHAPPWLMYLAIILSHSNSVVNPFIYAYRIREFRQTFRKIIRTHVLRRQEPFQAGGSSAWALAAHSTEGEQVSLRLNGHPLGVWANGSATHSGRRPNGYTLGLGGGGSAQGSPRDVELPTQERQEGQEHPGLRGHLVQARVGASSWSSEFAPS

Structure (SMILES) | pIC50 (adenosine A2 receptor) | Inhibition of mouse locomotor activity (Swiss-Webster male mice [1]; 3 mg/kg intraperitoneally) | Inhibition of mouse locomotor activity (Swiss-Webster male mice [1]; 10 mg/kg intraperitoneally) | Inhibition of mouse locomotor activity (Swiss-Webster male mice [1]; 30 mg/kg intraperitoneally) | Screen test failure (Swiss-Webster male mice [2]; 3 mg/kg intraperitoneally) | Screen test failure (Swiss-Webster male mice [2]; 10 mg/kg intraperitoneally) | Screen test failure (Swiss-Webster male mice [2]; 30 mg/kg intraperitoneally) | Inhibition of mouse locomotor activity (Swiss-Webster male mice [1]; 0.03 mg/kg intraperitoneally) | Inhibition of mouse locomotor activity (Swiss-Webster male mice [1]; 0.1 mg/kg intraperitoneally) | Inhibition of mouse locomotor activity (Swiss-Webster male mice [1]; 0.3 mg/kg intraperitoneally) | Inhibition of mouse locomotor activity (Swiss-Webster male mice [1]; 100 mg/kg intraperitoneally) | Screen test failure (Swiss-Webster male mice [2]; 0.03 mg/kg intraperitoneally) | Screen test failure (Swiss-Webster male mice [2]; 0.1 mg/kg intraperitoneally) | Screen test failure (Swiss-Webster male mice [2]; 0.3 mg/kg intraperitoneally) | Screen test failure (Swiss-Webster male mice [2]; 100 mg/kg intraperitoneally) | Inhibition of mouse locomotor activity (Swiss-Webster male mice [1]; 1 mg/kg intraperitoneally) | Screen test failure (Swiss-Webster male mice [2]; 1 mg/kg intraperitoneally)
OC[C@H]1O[C@@H](n2cnc3c(NCC4=CCCCc5ccccc54)ncnc32)[C@H](O)[C@@H]1O [Example 26, N^6-(1-benzocycloheptenyl)methyladenosine] | 5.57 | 50% | 31% | 64% | 0% | 22% | 22% |  |  |  |  |  |  |  |  |  | 
COc1ccc2c(c1)C(Nc1ncnc3c1ncn3[C@H]1O[C@H](CO)[C@@H](O)[C@H]1O)CCC2 (stereo partly drawn) [Example 9, (S)-N^6-(7-methoxy-1-tetralinyl)-adenosine] | 4.30 | −35% | −11% | −3% | 11% | 0% | 11% |  |  |  |  |  |  |  |  |  | 
CC1CCc2ccccc2C1Nc1ncnc2c1ncn2[C@@H]1O[C@H](CO)[C@@H](O)[C@H]1O (some centres unmarked) [Example 4, N^6-[1-(2-Methyl)-tetralinyl]-adenosine] | 6.28 |  | 97% | 99% |  | 77% | 88% | 3% | 1% | 70% | 99% | 0% | 0% | 11% | 77% |  | 
OC[C@H]1O[C@@H](n2cnc3c(NCC4=CCc5ccccc54)ncnc32)[C@H](O)[C@@H]1O [Example 22, N^6-[1H-inden-3-yl]methyladenosine] | 7.18 | 76% | 96% | 97% | 22% | 11% | 55% |  | 30% | 38% |  |  | 0% | 11% |  | 76% | 0%
OC[C@H]1O[C@@H](n2cnc3c(NC4CCCc5ccc(O)cc54)ncnc32)[C@H](O)[C@@H]1O (some centres unmarked) [Example 17] | 6.62 | 44% | 88% | 91% | 0% | 0% | 22% |  |  |  |  |  |  |  |  |  | 

Source: patent EP0179667B1, “N6-substituted adenosines” (priority 1984, dated 1986)
